# Assays:
# TDG cells (T47DERαD538G) = test: Trypan Blue exclusion cell death assay, TDG cells; format: cell-based, human; conditions: 24 hours
# Description: (§1) TRYPAN BLUE: For decades, viable cells have been measured by their ability to exclude the dye Trypan Blue. […] Dead cells, which have lost membrane integrity, take up the dye and are blue. Thus, the percentage of dead cells is the percentage of cells that are Trypan Blue positive out of the total cell population. Quantitative assessment of Trypan Blue uptake uses a cell counter from Fisher. Since the assay is instrument based, there is no observer bias in determining the percentage of Trypan Blue positive cells.
# (§2) TRYPAN BLUE ASSAYS: Assays are performed on cells in 6 well plates: 300,000 cells are plated in each well of a 6 well plate in 3 ml of medium. After 24 hours, the DMSO vehicle or the indicated compound is added (in 1000th of the vol.) The cells incubated for an additional 24 hours, and then harvested in 0.25 ml of trypsin, followed after harvest by 0.75 ml of medium. The cells are spun down and resuspended in 100-200 μl of medium left that is over the cell pellet (resuspend cells by pipetting up and down a few times). Add 10 μl to 10 μl of trypan blue. Then 10 μl is inserted into the counting slide. After inserting the slide into the Fisher TC20 counting is automatic (these many cells are needed because an accurate ratio of Trypan Blue positive to Trypan Blue negative cells requires about 200 cells in the field the instrument counts).
# The Trypan Blue cell death assay was used to evaluate the ability of the active enantiomer of C-105 [(−)-105] to kill ERα positive TDG-Luc cells. For all studies, 300,000 TDG-Luc cells/well in 10% FBS were plated in a 6 well plate in triplicate. 24 hours after plating, the indicated concentrations the active enantiomer of (−)-105, or BHPI (top) ICI, or OHT (Lower left) or (+)-105 (lower right) were added. After 24 hours, the cells were harvested, and the % dead cells was determined by automated Trypan Blue exclusion using the Countess II automated hemocytometer. Percentage of viable cells was calculated by doing 100−(Cell Death %). (n=3±SEM).
# TDG cells were incubated for 24 hours with 75 nM of BHPI or 75 nM of each of the indicated test compounds: 4, 6 and (±)-105 (enantiomers not separated). Cell death was determined using the instrument-based Trypan Blue exclusion assay. Structures are in the Synthesis section. […] (n=3±SEM).
# T47D cells [1] = conditions: 24 hours, up to 1,000 nM
# Protocol: One such change is loss of plasma membrane polarity. This is monitored using Annexin V. Dying cells also take up the dye propidium iodide. Propidium iodide (PI) fluoresces when it is intercalated into DNA. These assays monitor cells at specific stages of cell death.
# FLOW CYTOMETRY (FITC) ASSAYS: Cells were seeded in 12-well plates, 75,000 cells/well, and allowed to adhere overnight. The next day, the indicated concentrations of raptinal (positive control), (−)-105, (±)-105, and (+)-105 were added and allowed to incubate at 37° C. for 24 hours (Final Volume: 1 ml, 0.1% DMSO). After incubation, cells were harvested and resuspended in 350 μl of cold Annexin binding buffer (10 mM HEPES, 140 mM NaCl, 2.5 mM CaCl2, pH 7.4) premixed with Annexin V-FITC and PI dyes. Samples were analyzed on a BD Biosciences LSRII flow cytometer, and data analysis was performed using FSC Express Version 5-6. Cell death was assessed relative to a DMSO treated control.
# T47D, human breast cancer cells were plated at 75,000 cells/well. […] After 24 hours viable cells were determined by FACS using annexin V-FITC and propidium iodide dyes. […]
# 75,000 ERα positive T47D, human breast cancer cells, were plated/well. […] After 24 hours viable cells were determined by FACS using annexin V-FITC and propidium iodide dyes. […]
# TYS cells (T47DERαY537S) = test: Trypan Blue exclusion cell death assay, TYS cells; format: cell-based, human; conditions: 24 hours
# Description: as §1, §2
# TYS cells were incubated for 24 hours with 35 nM of BHPI or 35 nM of each of the indicated test compounds: 2, 4, and 105. Cell death was determined using the instrument-based Trypan Blue exclusion assay. (n=3±SEM).
# TYS cells were incubated for 24 hours with 50 nM of BHPI or 50 nM of each of the indicated test compounds: 4, 6 and 105. Cell death was determined using the instrument-based Trypan Blue exclusion assay. (n=3±SEM).
# T47D cells [2] = test: Trypan Blue exclusion cell death assay, T47D cells; format: cell-based, human; conditions: 75 nM, 24 hours
# Description: as §1
# TRYPAN BLUE ASSAYS: Assays are performed on cells in 6 well plates: 300,000 cells are plated in each well of a 6 well plate in 3 ml of medium. After 24 hours, the DMSO vehicle or the indicated compound is added (in 1000th of the vol.) The cells incubated for an additional 24 hours, and then harvested in 0.25 ml of trypsin, followed after harvest by 0.75 ml of medium. […]
# T47D cells were incubated for 24 hours with 75 nM of BHPI or 75 nM of each of the indicated test compounds: 4 and 6. Cell death was determined using the instrument-based Trypan Blue exclusion assay. […]
# T47D cells were treated for 24 hours with 100 nM BHPI, or with 100 nM of each of the test compounds: 6, 8, and 105. […] Cell death was determined using the instrument-based Trypan Blue exclusion assay. […]
# [3] = test system: ERα Negative MCF-10A cells; test: Trypan Blue exclusion cell death assay, MCF-10A cells; format: cell-based; conditions: 75 nM, 24 hours
# Description: as §1, §2
# In FIG. 28, neither the test compounds nor BHPI kill non-tumorigenic ERα Negative MCF-10A breast cells. ERα Negative MCF-10A cells were maintained for 24 hours in DMSO vehicle or 75 nM of BHPI or 75 nM of each of the indicated test compounds: 4, 6 and 105. Cell death was determined using the instrument-based Trypan Blue exclusion assay. (n=3±SEM).
# [4] = test system: T47D, TYS-4 and TDG-1 cells; test: MTS proliferation assay, T47D, TYS and TDG cells; format: cell-based, human; conditions: 4 days
# Protocol: FIG. 30 compares the ability of BHPI and test compounds to inhibit proliferation of T47D, TYS and TDG cells. T47D cells were in medium containing 10 FBS (which contains estrogen), TYS-4 and TDG-1 cells were in medium containing 10% cd-FBS (estrogen depleted). Cells are plated at 2,000 cells/well in 96 well plates. After 24 hours in medium containing FBS or charcoal-dextran treated FBS (depleted of endogenous estrogens), the indicated concentration of each compound (in DMSO at 1/1000th of the volume of medium) was added. After 2 days the medium was changed, and the compounds were added again. After 2 additional days (4 days total) MTS assays are used to evaluate cell proliferation. (n=6±S.E.M.).
# [5] = test system: ATP levels in TYS-Luc cells; test: Intracellular ATP levels; format: cell-based, human; conditions: 10,000 nM thapsigargin with 1,000 nM (−)-105, 1 hr
# Protocol: TYS-Luc cells were maintained DMSO vehicle (Veh), 1,000 nM BHPI, 1,000 nM (−)-105 with and without 10,000 nM thapsigargin (THG) for the indicated times. ATP levels were determines using a kit and relative ATP levels were from a standard curve. […] (n=3±SEM).
# MCF-7 and TYS-Luc cells = test: Cell death with 2-APB or thapsigargin (Trypan Blue exclusion); format: cell-based, human; conditions: thapsigargin, TYS-Luc cells, 1 hour
# Protocol: ERα positive MCF-7 and TYS-Luc were treated with DMSO vehicle (Veh), or BHPI or (−)-105 plus or minus 2-APB for the indicated times. Cells death was determined using the instrument-based Trypan Blue exclusion assay. […] This is consistent with (−)-105 inducing powerful lethal activation of the anticipatory UPR pathway. (n=3±SEM). […] TYS-Luc cells were maintained in DMSO vehicle (Veh) or BHPI, or (−)-105 with or without thapsigargin (THG) for the indicated times. Blocking the decline in ATP levels (FIG. 19) with THG inhibited (−)-105-induced cell death. […] (n=3±SEM).
# [6] = test system: ERα positive breast cancer; test: Mouse xenograft model of ERα positive breast cancer (BHPI); format: in vivo; conditions: at reasonable doses
# TYS-Luc cells = test: Long-term cell culture experiment, TYS-Luc cells (MTS); format: cell-based, human; conditions: 2 weeks 1 μM, then 4 weeks without drug
# Protocol: To simulate the effect of several weeks of treatment of a tumor in a mouse xenograft, long-term cell culture experiments were performed. TYS-Luc cells (T47DERαY537S-Luc cells; ERαY537S is the most lethal ERα mutation seen in metastatic breast cancer) were plated at 4,000 cells/well in 96 well plates. […] After 2 weeks (medium change every 2 days) cell number was determined using MTS and a standard curve of absorbance versus cell number for TYS-Luc cells. Notes: (i) Bars denote the BHPI and (−)-105 arms of the experiment. No drug is present during regrow. […] This allows any surviving cells to regrow. After 4 weeks the cells were assayed using MTS. […] (Note: Visual inspection of the wells confirmed that there were no cells in the well treated for 2 weeks with active (−)-105.) To test whether the cells that regrew after BHPI treatment were resistant to BHPI they were re-treated for another cycle (BHPI Retreat) and shown to retain sensitivity to BHPI killing. (n=8 biological replicates±SEM.
# [7] = test system: partially BHPI-resistant T47D clones 1, 3, 8, and 11; test: Growth of partially BHPI-resistant T47D clones (MTS); format: cell-based, human; conditions: 100 nM and 1 μM, 4 days
# Protocol: (§3) ERα containing T47D human breast cancer cells able to survive in 1 μM BHPI were selected by clonal outgrowth. The effect of 100 nM and 1 μM BHPI and (−)-105 on growth of the (BHPI-sensitive) parental T47D cells and partially BHPI-resistant T47D clones 1, 3, 8, and 11 was evaluated. 4,000 cells/well were plated. Cell number was determined by MTS assay from a standard curve of absorbance versus cell number. […] Thus, in 4 days (−)-105 killed some, but not all, of the resistant cells.
# [8] = test system: (BHPI-sensitive) parental T47D cells; test: Growth of parental T47D cells (MTS); format: cell-based, human; conditions: 100 nM and 1 μM, 4 days
# Protocol: as §3
# Caov-3 cells = test: Cell death of Caov-3 ovarian cancer cells (automated Trypan Blue exclusion); format: cell-based, human; conditions: 24 hours
# Protocol: FIG. 33. 105, but not BHPI, kills therapy-resistant ovarian CaOV-3 ovarian cancer cells. (±)-105; Cell death assay: Automated Trypan Blue exclusion. (24 hours post (±)-105) FIG. 34. (−)105 nearly eradicates ER+ drug-resistant tumors. Orthotopic breast cancer model, TYS-Luc cells, 40 mg/kg (−)-105 i.p., daily. 7 d Post injection image is a much longer exposure at higher gain than before injection image.
# Caov3: Drug resistant ERα positive ovarian cancer cells. […] These cells are completely resistant to tamoxifen and fulvestrant and partially resistant to cisplatin and paclitaxel.
smiles,measurement,setting,value
"CC/C(=C(\c1ccc(O)cc1)c1ccc(OCCN(C)C)cc1)c1ccccc1 [OHT, z-4-hydroxytamoxifen, reference compound]",killing of TDG-Luc cells,"TDG cells (T47DERαD538G); dose response, TDG-Luc cells",do not kill
same,cytotoxic or cytostatic phenotype,T47D cells [1],cytostatic
"COc1ccc(C2(c3ccc(O)cc3)C(=O)Nc3c(C(F)(F)F)cccc32)cc1 (stereo not shown) [compound 4, 3-(4-hydroxyphenyl)-3-(4-methoxyphenyl)-7-(trifluoromethyl)indolin-2-one]",ability to kill TDG cells compared to BHPI,TDG cells (T47DERαD538G); 75 nM,greatly increased ability to kill
same,ability to kill TYS cells compared to BHPI,TYS cells (T47DERαY537S); 35 nM,greatly increased ability to kill
same,ability to kill TYS cells compared to BHPI,TYS cells (T47DERαY537S); 50 nM,increased ability to kill
same,ability to kill T47D cells (wild type estrogen receptor),T47D cells [2],greatly increased ability to kill
same,death of ERα Negative MCF-10A cells,[3],neither BHPI nor any of the test compounds induce significant death
same,effectiveness in killing ERα positive breast cancer cells compared to BHPI,[4],more effective than BHPI
"C/C=C(/C)C(=O)O[C@H]1C(C)=C2[C@H]([C@@H]1OC(=O)CCCCCCC)[C@@](C)(OC(C)=O)C[C@H](OC(=O)CCC)[C@@]1(O)[C@H]2OC(=O)[C@@]1(C)O [THG, thapsigargin, reference compound]",effect on (−)-105-induced decline in ATP levels,[5],completely blocked
same,effect on (−)-105-induced cell death,MCF-7 and TYS-Luc cells,strong inhibition
"Cc1cccc2c1NC(=O)C2(c1ccc(O)cc1)c1ccc(O)cc1 [BHPI, reference compound]",effect on tumor growth,[6],stopped tumor growth and induced rapid and substantial tumor regression
same,death of ERα Negative MCF-10A cells,[3],neither BHPI nor any of the test compounds induce significant death
same,regrowth of cells after treatment,TYS-Luc cells,robust regrowth
same,growth of the BHPI-resistant clones,[7],inhibited growth but could not stop growth of the resistant clones
same,growth / killing of parental T47D cells,[8],blocked growth and killed many of the T47D cells
same,inhibition of proliferation,[4],effectively inhibit proliferation
same,killing of Caov-3 ovarian cancer cells,Caov-3 cells,blocks growth of Caov-3 cells but does not kill them
same,effect on tumor growth / tumors,OVCAR-3 cells; OVCAR-3 orthotopic xenograft,strongly reduced tumor growth
same,tolerability in mice,OVCAR-3 cells; in both studies,well tolerated
